From patent US20240116961A1, “TRIPHENYPHOSPHINE MODIFIED SERTRALINE DERIVATIVE AND METHODS THEREOF” (XIAMEN UNIVERSITY, priority 2022, published 2024)

Key:
tumor cells = test: Mitophagy by transmission electron microscopy; assay type: cell-based; settings: concentration 0.3 μM, work time 3 hours; FIG. 3
Experimental: • (1) Apparatus: Transmission electron microscope Hitachi HT-7800 • (2) Reagent: glutaraldehyde • (3) Experimental method: cells are inoculated in a 6 cm diameter Petri dish and incubated with the compounds for 3 hours. The culture solution is poured out; a 2 mL glutaraldehyde working solution (2.5% glutaraldehyde and phosphate buffer (PB) system) restored to room temperature is added and put into a refrigerator at 4° C. after fixation for 15 minutes at room temperature; the fixation solution is diluted 2-3 times with PB after fixation for 2-3 hours, the PB used for washing is poured off, PB containing 5% Bovine albumin (BSA) is added with an amount of 1 mL, and the adherent fixed cells are scraped off using a cell scraper, collected into 1.5 mL centrifuge tubes, and centrifuged for 4-5 minutes at 2,500 revolutions per minute (rpm) at 4° C. to prepare samples. The images are analyzed by a transmission electron microscope.

[1] = Immunohistochemistry of heart, liver, spleen, lung and kidney in tumor-bearing mice; assay type: in vivo, BALB/c (nu/nu) nude mice; settings: 1 mg/kg intraperitoneal injection once a day for 15 days; FIG. 6
Experimental: BALB/c (nu/nu) nude mice (with weights of 18-20 g and raised in an SPF-level animal room) are selected to construct a mouse transplantation tumor model in vitro, the mice are grouped and inoculated with human non-small cell lung cancer cells (A549), and tumor volumes in the mice grow to 100-300 mm^3. The drug is administered by intraperitoneal injection, and each mouse in an administration group is administered once a day and 1 mg/kg once according to body weight. In a control group, each mouse is administrated with a same volume of PBS buffer, the volume of each mouse is measured simultaneously, and the drug is continuously administered for 15 days. After the drug administration and treatment process is complete, the mice are killed by cervical dislocation, and the mouse tumors are stripped, photographed, and weighed.

| Structure (SMILES) | autophagosome formation / mitophagy (tumor cells) | toxic side effects (heart, liver, spleen, lung, kidney) [1] |
| --- | --- | --- |
| CN(C(=O)CC[P+](c1ccccc1)(c1ccccc1)c1ccccc1)[C@H]1CC[C@@H](c2ccc(Cl)c(Cl)c2)c2ccccc21 [Mito-2-Ser, (3-(((1S,4S)-4-(3,4-dichlorophenyl)-1,2,3,4-tetrahydronaphthalen-1-yl)(methyl)amino)-3-propanoyl)triphenylphosphine] | induce autophagosome formation to phagocytize mitochondria |  |
| CN(C(=O)CCCCCCCCCC[P+](c1ccccc1)(c1ccccc1)c1ccccc1)[C@H]1CC[C@@H](c2ccc(Cl)c(Cl)c2)c2ccccc21 [Mito-10-Ser, (11-(((1S,4S)-4-(3,4-dichlorophenyl)-1,2,3,4-tetrahydronaphthalen-1-yl)(methyl)amino)-11-oxoundecyl)triphenylphosphine] |  | did not have significant toxic side effects |
| CN(C(=O)CCCCCCCCCCCC[P+](c1ccccc1)(c1ccccc1)c1ccccc1)[C@H]1CC[C@@H](c2ccc(Cl)c(Cl)c2)c2ccccc21 [Mito-12-Ser, (13-(((1S,4S)-4-(3,4-dichlorophenyl)-1,2,3,4-tetrahydronaphthalen-1-yl)(methyl)amino)-13-oxytridecyl)triphenylphosphine] | induce autophagosome formation to phagocytize mitochondria |  |
